Drawing on patent publication US10865191B2, “Heterocyclic compounds useful as modulators of TNF alpha” (BRISTOL-MYERS SQUIBB COMPANY, priority 2015, dated 2020), this text covers IC50 for 24 compounds.

Molecules are shown by their SMILES.

TNFα, sequence (P01375 77-233 limits assumed): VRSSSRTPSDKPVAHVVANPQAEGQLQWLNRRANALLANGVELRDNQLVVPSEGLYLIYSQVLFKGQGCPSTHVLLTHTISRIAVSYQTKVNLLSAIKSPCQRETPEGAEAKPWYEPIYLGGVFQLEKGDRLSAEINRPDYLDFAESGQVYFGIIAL

The target in this assay is TNFα (Homo sapiens, UniProt P01375). Nature of the assay: TNF induced HEK-Blue assay (NF-kB-driven secreted alkaline phosphatase reporter). It counts as cell-based. Conditions: TNFα 0.5 ng/mL, HEK-Blue-CD40L cells, 18 h; read-out: TNF induced HEK-Blue assay IC50 value. An outline of the steps:
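HEK-Blue-CD40L cells (NF-kB-driven SEAP reporter), 20,000/well, added after 30 min pre-incubation of compound (0.004–25 μM final) with TNFα 0.5 ng/mL final at 37 °C; 18 h incubation. SEAP read with QUANTI-Blue at 620 nm; IC50 from 4-parameter logistic fit, normalized to unstimulated and stimulated DMSO controls.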
In general, IC50 refers to the midpoint of a concentration-inhibition curve. For `C[C@@H](Nc1c(Cl)c(C(=O)Nc2cccnc2)nc2ccc(-c3cnc(C(C)(C)O)nc3)cc12)c1cc(C(N)=O)ccc1F` [Example 395, (R)-4-((1-(5-carbamoyl-2-fluorophenyl)ethyl)amino)-3-chloro-6-(2-(2-hydroxypropan-2-yl)pyrimidin-5-yl)-N-(pyridin-3-yl)quinoline-2-carboxamide], the IC50 lay within 1000 to 10000 nM. As for `CC(C)(O)c1ncc(-c2nc3c(NC(c4ccccc4)C(F)F)c(Cl)cnc3cc2F)cn1` (racemic) [Example 212, 2-(5-(7-chloro-8-((2,2-difluoro-1-phenylethyl)amino)-3-fluoro-1,5-naphthyridin-2-yl)pyrimidin-2-yl)propan-2-ol], the half-maximal inhibitory concentration (IC50) is under 1000 nM.

Take `C[C@@H](Nc1c(Cl)cnc2ccc(-c3ccc(CN4CCC4)cc3)cc12)c1ccccc1F` [Example 30, (R)-6-(4-(azetidin-1-ylmethyl)phenyl)-3-chloro-N-(1-(2-fluorophenyl)ethyl)quinolin-4-amine]: the IC50 was in the range of 10000 to 25000 nM. Take `Cc1nc2ccc(-c3ccc(C(C)(C)O)cc3)cc2c(NC(C)c2cccs2)c1Cl` (stereo not drawn) [Example 502, 2-(4-(3-chloro-2-methyl-4-((1-(thiophen-2-yl)ethyl)amino)quinolin-6-yl)phenyl)propan-2-ol]: the IC50 lay within 1000 to 10000 nM.

Regarding `CC(Nc1c(Cl)cnc2ccc(-c3ccc(C(C)(C)O)cc3)cc12)c1cnsc1` (racemic) [Example 172, 2-(4-(3-chloro-4-((1-(isothiazol-4-yl)ethyl)amino)quinolin-6-yl)phenyl)propan-2-ol], the IC50 was in the range of 10000 to 25000 nM. For `CC(Nc1c(Cl)cnc2cc(F)c(-c3cnc(C(O)CO)nc3)cc12)c1ccccc1F` (single isomer, unassigned) [Example 596, 1-(5-(3-chloro-7-fluoro-4-((1-(2-fluorophenyl)ethyl)amino)quinolin-6-yl)pyrimidin-2-yl)ethane-1,2-diol] the value was under 1000 nM. With `C[C@@H](Nc1c(Cl)cnc2ccc(-c3ccc(N4CCN(CC(=O)O)C(=O)C4)nc3)cc12)c1ccccc1F` [Example 81, (R)-2-(4-(5-(3-chloro-4-((1-(2-fluorophenyl)ethyl)amino)quinolin-6-yl)pyridin-2-yl)-2-oxopiperazin-1-yl)acetic acid], the IC50 was 1000 to 10000 nM. The result for `C=Cc1cccc(C(Nc2c(Cl)cnc3cc(F)c(-c4cnc(C(C)(C)O)nc4)nc23)C(F)F)c1` (racemic) [Example 216, 2-(5-(7-chloro-8-((2,2-difluoro-1-(3-vinylphenyl)ethyl)amino)-3-fluoro-1,5-naphthyridin-2-yl)pyrimidin-2-yl) propan-2-ol] reads under 1000 nM; that for `CC(C)(O)c1ncc(-c2ccc3ncc(Cl)c(NC(C)(C)c4ccc(C(F)(F)F)cc4)c3c2)cn1` [Example 185, 2-(5-(3-chloro-4-((2-(4-(trifluoromethyl)phenyl)propan-2-yl)amino)quinolin-6-yl)pyrimidin-2-yl)propan-2-ol], 10000 to 25000 nM. `C[C@@H](Nc1c(Cl)cnc2ccccc12)c1cc(-c2cn[nH]c2)ccc1F` [Example 455, (R)-3-chloro-N-(1-(2-fluoro-5-(1H-pyrazol-4-yl)phenyl)ethyl)quinolin-4-amine]: the IC50 was under 1000 nM. For `CC(Nc1c(Cl)cnc2ccc(-c3cnc(C(C)(C)O)nc3)cc12)c1ccc(F)cc1F` (racemic) [Example 163, 2-(5-(3-chloro-4-((1-(2,4-difluorophenyl)ethyl)amino)quinolin-6-yl)pyrimidin-2-yl)propan-2-ol], the IC50 fell in the range of 1000 to 10000 nM. The result for `C[C@@H](Nc1c(Cl)cnc2ccc(-c3cnc(C(C)(C)O)nc3)cc12)c1cc(C2NC(=O)NC2=O)ccc1F` (single isomer, unassigned) [Example 422] reads under 1000 nM; that for `C[C@@H](Nc1c(Cl)cnc2ccccc12)c1cc(-c2cn(C)nc2C(F)(F)F)ccc1F` [Example 472, (R)-3-chloro-N-(1-(2-fluoro-5-(1-methyl-3-(trifluoromethyl)-1H-pyrazol-4-yl)phenyl)ethyl)quinolin-4-amine], 1000 to 10000 nM; that for `CC[C@H](Nc1c(Cl)cnc2ccccc12)c1cc(-c2cncnc2)ccc1F` [Example 557, (S)-3-chloro-N-(1-(2-fluoro-5-(pyrimidin-5-yl)phenyl)propyl)quinolin-4-amine], 1000 to 10000 nM. For `Cc1nc2ccc(-c3cnc(C(C)(C)O)nc3)cc2c(N[C@H](C)c2cc(Br)ccc2F)c1Cl` [Example 316, (R)-2-(5-(4-((1-(5-bromo-2-fluorophenyl)ethyl)amino)-3-chloro-2-methylquinolin-6-yl)pyrimidin-2-yl)propan-2-ol] the value was under 1000 nM; for `CC(C)(O)CNc1ncc(-c2ccc3ncc(Cl)c(N[C@@H](c4ccccc4F)C(F)F)c3c2)cn1` [Example 80, (S)-1-((5-(3-chloro-4-((2,2-difluoro-1-(2-fluorophenyl)ethyl)amino)quinolin-6-yl)pyrimidin-2-yl)amino)-2-methylpropan-2-ol], under 1000 nM. The result for `Cc1ccc(C)c(Nc2c(Cl)c(N)nc3ccc(-c4cnc(NC(CO)CO)nc4)cc23)c1` [Example 71, 2-((5-(2-amino-3-chloro-4-((2,5-dimethylphenyl)amino)quinolin-6-yl)pyrimidin-2-yl)amino)propane-1,3-diol] reads under 1000 nM; that for `CC(Nc1c(Cl)cnc2ccc(-c3cnc(C(C)(C)O)nc3)cc12)c1cc(F)ccc1F` (racemic) [Example 160, 2-(5-(3-chloro-4-((1-(2,5-difluorophenyl)ethyl)amino)quinolin-6-yl)pyrimidin-2-yl)propan-2-ol], under 1000 nM. Turning to `CC(C)(O)c1ncc(-c2ccc3ncc(Cl)c(NC(CC(F)F)c4ccccc4F)c3c2)cn1` (racemic) [Example 168, 2-(5-(3-chloro-4-((3,3-difluoro-1-(2-fluorophenyl)propyl)amino)quinolin-6-yl)pyrimidin-2-yl)propan-2-ol], the IC50 was under 1000 nM.

`Cc1nc2cc(F)c(-c3cnc(C(C)(C)O)nc3)nc2c(NC(c2ccccc2)C(F)F)c1Cl` (racemic) [Example 214, 2-(5-(7-chloro-8-((2,2-difluoro-1-phenylethyl)amino)-3-fluoro-6-methyl-1,5-naphthyridin-2-yl)pyrimidin-2-yl)propan-2-ol]: the IC50 was under 1000 nM.

In the case of `CC(C)(O)c1ncc(-c2ccc3ncc(Cl)c(NCc4ccccc4C(F)(F)F)c3c2)cn1` [Example 146, 2-(5-(3-chloro-4-((2-(trifluoromethyl)benzyl)amino)quinolin-6-yl)pyrimidin-2-yl)propan-2-ol], the IC50 was under 1000 nM. `CC(Cc1ccco1)Nc1c(Cl)cnc2ccc(-c3cnc(C(C)(C)O)nc3)cc12` (racemic) [Example 133, 2-(5-(3-chloro-4-((1-(furan-2-yl)propan-2-yl)amino)quinolin-6-yl)pyrimidin-2-yl)propan-2-ol]: the IC50 was under 1000 nM. For the compound `C=CCOc1ccc(F)c([C@@H](C)Nc2c(Cl)cnc3ccccc23)c1` [Example 457, (R)—N-(1-(5-(allyloxy)-2-fluorophenyl)ethyl)-3-chloroquinolin-4-amine], the IC50 was in the range of 1000 to 10000 nM. For `C[C@@H](Nc1c(Cl)cnc2ccc(-c3ccc(C4(N)CC4)cc3)cc12)c1ccccc1F` [Example 102, (R)-6-(4-(1-aminocyclopropyl)phenyl)-3-chloro-N-(1-(2-fluorophenyl)ethyl)quinolin-4-amine] the value was under 1000 nM.
